# Results reported in BindingDB's records for doi:10.1021/acs.jmedchem.6b00538 (University of Lille, 2017).
# pIC50: −log10 of the molar value.
# Molecular target: Fatty-acid amide hydrolase 1 (Rattus norvegicus) (UniProt P97612)
# Test: Inhibition of Wistar rat brain homogenate FAAH using [3H]AEA as substrate after 10 mins by liquid scintillation counting method
# Sequence of Fatty-acid amide hydrolase 1 (Rattus norvegicus) (P97612 whole entry, looked up): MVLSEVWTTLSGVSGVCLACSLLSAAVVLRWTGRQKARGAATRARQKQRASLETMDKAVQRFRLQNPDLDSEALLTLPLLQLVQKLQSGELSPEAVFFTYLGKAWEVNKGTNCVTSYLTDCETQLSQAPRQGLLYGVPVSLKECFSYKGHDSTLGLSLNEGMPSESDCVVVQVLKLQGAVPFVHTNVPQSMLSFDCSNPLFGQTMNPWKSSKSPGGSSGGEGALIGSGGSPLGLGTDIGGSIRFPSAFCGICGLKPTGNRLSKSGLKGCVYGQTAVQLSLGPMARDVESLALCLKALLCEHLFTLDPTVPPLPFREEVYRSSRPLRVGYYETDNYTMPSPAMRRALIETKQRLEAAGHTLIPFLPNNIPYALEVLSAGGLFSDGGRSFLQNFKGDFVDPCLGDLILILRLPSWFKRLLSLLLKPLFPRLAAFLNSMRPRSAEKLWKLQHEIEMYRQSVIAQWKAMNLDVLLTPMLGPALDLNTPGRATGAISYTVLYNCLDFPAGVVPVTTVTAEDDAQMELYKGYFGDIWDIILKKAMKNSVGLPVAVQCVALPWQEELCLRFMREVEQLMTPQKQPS
smiles,measurement,value
COc1nn(-c2ccc(Oc3ccccc3)cc2C(F)(F)F)c(=O)o1,pIC50,6.64
